The assay deals with influenza A2 -Kumamoto/Y5 (H2 N2) virus. It is filed as in vivo, influenza virus; DDI mice. As to conditions: Virazole 50 mg/kg, intraperitoneal, 15 times.

Take `NC(=O)c1ncn([C@@H]2O[C@H](CO)[C@@H](O)[C@H]2O)n1` [Virazole]: the “Average of survival days” value is listed as above 16.9 days and the Survival percentage was 30%.

Values taken from patent publication US4163780A (Kirin-Seagram Limited, priority 1977, dated 1979).
